Broadly, the melting point is the temperature of the solid-liquid transition.

In turn, `O=C(O)C(Cc1ccccc1)NC(=O)C(O)c1ccc(OCc2cccc3[nH]ccc23)cc1` (stereo not shown) [Compound 88, 2-{2-hydroxy-2-[4-(1H-indol-4-ylmethoxy)-phenyl]-ethanoylamino}-3-phenyl-propionic acid] displayed a melting point of 178 to 181 °C.

In turn, `O=C(N[C@H](Cc1ccccc1)C(=O)O)OCc1ccc(OCCOc2ccccc2)cc1` [Compound 89, (R)-2-[4-(2-phenoxy-ethoxy)-benzyloxycarbonylamino]-3-phenyl-propionic acid] registered a melting point of 130 to 131.3 °C.

`O=C(NC(Cc1ccccc1)C(=O)O)OCc1ccc(COCc2ccccc2)cc1` (stereo not shown) [Compound 90, 2-(4-benzyloxymethyl-benzyloxycarbonylamino)-3-phenyl-propionic acid] returned a melting point of 78.3 to 79.9 °C.

`O=C(N[C@H](Cc1ccccc1)C(=O)O)OCc1cc2cc(-c3cc(F)cc(F)c3)ccc2o1` [Compound 99, (R)-2-[5-(3,5-difluoro-phenyl)-benzofuran-2-ylmethoxycarbonylamino]-3-phenyl-propionic acid] came in with a melting point of 163 to 167 °C.

`O=C(N[C@H](Cc1ccccc1)C(=O)O)OCc1cc2cc(-c3cccc(F)c3F)ccc2o1` [Compound 100, (R)-2-[5-(2,3-difluoro-phenyl)-benzofuran-2-ylmethoxycarbonylamino]-3-phenyl-propionic acid]: the melting point was in the range of 159 to 160 °C.

The molecule `O=C(N[C@H](Cc1ccccc1)C(=O)O)OCc1cc2cc(-c3cccc4c3OCO4)ccc2o1` [Compound 102, (R)-2-(5-benzo[1,3]dioxol-4-yl-benzofuran-2-ylmethoxycarbonylamino)-3-phenyl-propionic acid] yielded a melting point of 191 to 192 °C.

In turn, `O=C(N[C@H](Cc1ccccc1)C(=O)O)OCc1cc2cc(-c3cc(F)ccc3F)ccc2o1` [Compound 103, (R)-2-[5-(2,5-difluoro-phenyl)-benzofuran-2-ylmethoxycarbonylamino]-3-phenyl-propionic acid] showed a melting point of 89.4 to 92.6 °C.

Regarding `O=C(N[C@H](Cc1ccccc1)C(=O)O)OCc1cc2cc(-c3ccc(F)c(F)c3)ccc2o1` [Compound 104, (R)-2-[5-(3,4-Difluoro-phenyl)-benzofuran-2-ylmethoxycarbonylamino]-3-phenyl-propionic acid], the melting point is 98.9 to 101.7 °C.

Molecule `O=C(N[C@H](Cc1ccc(Cl)cc1)C(=O)O)OCc1cc2cc(-c3ccccc3)ccc2o1` [Compound 106, (R)-3-(4-chloro-phenyl)-2-(5-phenyl-benzofuran-2-ylmethoxycarbonylamino)-propionic acid] returned a melting point of 151 to 157 °C.

The molecule `O=C(N[C@H](Cc1ccc(Br)cc1)C(=O)O)OCc1cc2cc(-c3ccccc3)ccc2o1` [Compound 107, (R)-3-(4-bromo-phenyl)-2-(5-phenyl-benzofuran-2-ylmethoxycarbonylamino)-propionic acid] had a melting point of 136 to 140 °C.

As for `O=C(N[C@H](Cc1cccc(F)c1)C(=O)O)OCc1cc2cc(-c3ccccc3)ccc2o1` [Compound 108, (R)-3-(3-fluoro-phenyl)-2-(5-phenyl-benzofuran-2-ylmethoxycarbonylamino)-propionic acid], the melting point lay in the range of 141.4 to 142.3 °C.

In turn, `O=C(O)CC(NC(=O)OCc1cc2cc(-c3ccccc3)ccc2o1)c1ccccc1` (stereo not shown) [Compound 109, 3-phenyl-3-(5-phenyl-benzofuran-2-ylmethoxycarbonylamino)-propionic acid] displayed a melting point of 168 to 169.8 °C.

Regarding `O=C(O)CC(Cc1ccccc1)NC(=O)OCc1cc2cc(-c3ccccc3)ccc2o1` (stereo not shown) [Compound 110, 4-phenyl-3-(5-phenyl-benzofuran-2-ylmethoxycarbonylamino)-butyric acid], the melting point lay in the range of 168 to 169.8 °C.

Regarding `O=C(N[C@@H](Cc1ccc(F)cc1)C(=O)O)OCc1cc2cc(-c3ccc(F)cc3)ccc2o1` [Compound 113, (S)-3-(4-fluoro-phenyl)-2-[5-(4-fluoro-phenyl)-benzofuran-2-ylmethoxycarbonylamino]-propionic acid], the melting point fell in the range of 148.3 to 157 °C.

In turn, `O=C(N[C@H](Cc1ccc(F)cc1)C(=O)O)OCc1cc2cc(-c3ccccc3F)ccc2o1` [Compound 114, (R)-3-(4-fluoro-phenyl)-2-[5-(2-fluoro-phenyl)-benzofuran-2-ylmethoxycarbonylamino]-propionic acid] displayed a melting point of 105.2 to 110.2 °C.

Regarding `O=C(N[C@H](Cc1ccc(F)cc1)C(=O)O)OCc1cc2cc(-c3ccccc3Cl)ccc2o1` [Compound 115, (R)-2-[5-(2-chloro-phenyl)-benzofuran-2-ylmethoxycarbonylamino]-3-(4-fluoro-phenyl)-propionic acid], the melting point was in the range of 86.7 to 100.1 °C.

On to `O=C(N[C@H](Cc1ccc(F)cc1)C(=O)O)OCc1cc2cc(-c3ccc4c(c3)OCO4)ccc2o1` [Compound 116, (R)-2-(5-benzo[1,3]dioxol-5-yl-benzofuran-2-ylmethoxycarbonylamino)-3-(4-fluoro-phenyl)-propionic acid], for which the melting point lay in the range of 132 to 134.5 °C.

Regarding `CC(C)(C)c1ccc(-c2ccc3oc(COC(=O)N[C@H](Cc4ccc(F)cc4)C(=O)O)cc3c2)cc1` [Compound 117, (R)-2-[5-(4-tert-butyl-phenyl)-benzofuran-2-ylmethoxycarbonylamino]-3-(4-fluoro-phenyl)-propionic acid], the melting point was 114.3 to 124.6 °C.

With `O=C(N[C@H](Cc1ccc(Cl)cc1)C(=O)O)OCc1cc2cc(-c3ccc(F)cc3)ccc2o1` [Compound 118, (R)-3-(4-chloro-phenyl)-2-[5-(4-fluoro-phenyl)-benzofuran-2-ylmethoxycarbonylamino]-propionic acid], the melting point lay within 130 to 154.5 °C.

Molecule `O=C(N[C@H](Cc1ccc(Br)cc1)C(=O)O)OCc1cc2cc(-c3ccc(F)cc3)ccc2o1` [Compound 119, (R)-3-(4-bromo-phenyl)-2-[5-(4-fluoro-phenyl)-benzofuran-2-ylmethoxycarbonylamino]-propionic acid] registered a melting point of 150.6 to 160 °C.

`O=C(N[C@H](Cc1cccc(F)c1)C(=O)O)OCc1cc2cc(-c3ccc(F)cc3)ccc2o1` [Compound 120, (R)-3-(3-fluoro-phenyl)-2-[5-(4-fluoro-phenyl)-benzofuran-2-ylmethoxycarbonylamino]-propionic acid]: the melting point fell in the range of 81.7 to 82.9 °C.

`O=C(N[C@H](Cc1ccc(F)cc1)C(=O)O)OCc1cc2cc(-c3cc(F)ccc3F)ccc2o1` [Compound 121, (R)-2-[5-(2,5-difluoro-phenyl)-benzofuran-2-ylmethoxycarbonylamino]-3-(4-fluoro-phenyl)-propionic acid] returned a melting point of 98 to 101 °C.

In turn, `O=C(N[C@H](Cc1ccc(F)cc1)C(=O)O)OCc1cc2cc(-c3ccc(F)c(F)c3)ccc2o1` [Compound 122, (R)-2-[5-(3,4-difluoro-phenyl)-benzofuran-2-ylmethoxycarbonylamino]-3-(4-fluoro-phenyl)-propionic acid] yielded a melting point of 97 to 99.1 °C.

`O=C(N[C@H](Cc1ccc(F)cc1)C(=O)O)OCc1cc2cc(-c3cc(F)cc(F)c3)ccc2o1` [Compound 123, (R)-2-[5-(3,5-difluoro-phenyl)-benzofuran-2-ylmethoxycarbonylamino]-3-(4-fluoro-phenyl)-propionic acid]: the melting point fell in the range of 174 to 175 °C.

In turn, `O=C(N[C@H](Cc1ccccc1)C(=O)O)OCc1cc2cc(-c3cccnc3)ccc2o1` [Compound 124, (R)-3-phenyl-2-(5-pyridin-3-yl-benzofuran-2-ylmethoxycarbonylamino)-propionic acid] yielded a melting point of 143 to 145.7 °C.

For `Cc1ccc(-c2cc(COC(=O)NC(Cc3ccccc3)C(=O)O)co2)cc1` (stereo not shown) [Compound 127, 3-phenyl-2-(5-p-tolyl-furan-3-ylmethoxycarbonylamino)-propionic acid], the melting point lay in the range of 67.7 to 68.2 °C.

Molecule `O=C(N[C@@H](Cc1ccccc1)C(=O)O)OCCc1cc2cc(-c3ccccc3)ccc2o1` [Compound 128, (S)-3-phenyl-2-[2-(5-phenyl-benzofuran-2-yl)-ethoxycarbonylamino]-propionic acid] yielded a melting point of 170.9 to 171.9 °C.

With `O=C(N[C@H](Cc1ccccc1)C(=O)O)OCc1ccc2[nH]c(-c3ccccc3)nc2c1` [Compound 129, (R)-3-Phenyl-2-(2-phenyl-1H-benzoimidazol-5-ylmethoxycarbonylamino)-propionic acid], the melting point lay in the range of 165 to 215 °C.

The molecule `Cn1c(-c2ccccc2)nc2cc(COC(=O)N[C@H](Cc3ccccc3)C(=O)O)ccc21` [Compound 130, (R)-2-(1-Methyl-2-phenyl-1H-benzoimidazol-5-ylmethoxycarbonylamino)-3-phenyl-propionic acid] came in with a melting point of 176 to 177 °C.

`O=C(N[C@H](Cc1ccccc1)C(=O)O)OCc1ccc2nc(-c3ccccc3)ccc2c1` [Compound 131, (R)-3-phenyl-2-(2-phenyl-quinolin-6-ylmethoxycarbonylamino)-propionic acid] gave a melting point of 190 to 191 °C.

`O=C(N[C@H](Cc1ccccc1)C(=O)O)OCc1ccc2[nH]c(-c3ccccc3)cc2c1` [Compound 132, (R)-3-phenyl-2-(2-phenyl-1H-indol-5-ylmethoxycarbonylamino)-propionic acid] gave a melting point of 176 to 177 °C.

Molecule `O=C(NC(Cc1ccccc1)C(=O)O)OCc1ccc(/C=C/c2ccccc2)cc1` (stereo not shown) [Compound 133, 3-phenyl-2-[4-((E)-styryl)-benzyloxycarbonylamino]-propionic acid] displayed a melting point of 165 to 168.5 °C.

The molecule `O=C(N[C@H](Cc1ccccc1)C(=O)O)OCc1cc2cc(Cc3ccccc3)ccc2o1` [Compound 134, (R)-2-(5-benzyl-benzofuran-2-ylmethoxycarbonylamino)-3-phenyl-propionic acid] registered a melting point of 159.4 to 160.1 °C.

Consider `O=C(N[C@H](Cc1ccccc1)C(=O)O)OCc1cc2cc(C(=O)c3ccccc3)ccc2o1` [Compound 136, (R)-3-phenyl-2-[5-(1-phenyl-methanoyl)-benzofuran-2-ylmethoxycarbonylamino]-propionic acid], for which the melting point fell in the range of 136.3 to 138.6 °C.

The values above are taken from patent US7056903B2, “Carboxylic acid derivatives as IP antagonists” (Syntex (U.S.A.) LLC, priority 2000, dated 2006).
